# Literature values, collected in PubChem BioAssay AID1259409 (Chemical Carcinogenesis Research Information System (CCRIS), 2018).
# Tested on: rodent chemically induced tumor inhibition, incidence and multiplicity
# Assay: CCRIS tumor inhibitor studies
# Conditions: Dose [Inhibitor]: 0
compound,measurement,setting,value
O.O.O.O.O.[Cd+2].[Cd+2].[Cl-].[Cl-].[Cl-].[Cl-],"tumour outcome (control, treated, inhibition, significance)","Carcinogen: NITROSODIETHYLAMINE, 55-18-5, 1000 PPM IN DRINKING WATER BEGINNING 2 WK POST CARCINOGEN DOSE AND CONTINUING FOR DURATION OF STUDY (STUDY DURATION:, Route [Inhibitor]: ORAL, Species: MOUSE, Strain/Sex: B6C3F1/MALE, Target Tissue: Type of Lesion: LIVER: TUMOR, Dose [Carcinogen]: 5 MG/ML IN TRICAPRYLIN ONCE AT 5 WK OF AGE, Promoter: NONE USED","22/25 (88%), 2/25 (8%), 91%, p<0.05"
same,"tumour outcome (control, treated, inhibition, significance)","Carcinogen: NITROSODIETHYLAMINE, 55-18-5, 1000 PPM IN DRINKING WATER BEGINNING 2 WK POST CARCINOGEN DOSE AND CONTINUING FOR DURATION OF STUDY (STUDY DURATION:, Route [Inhibitor]: ORAL, Species: MOUSE, Strain/Sex: B6C3F1/MALE, Target Tissue: Type of Lesion: LUNG: TUMOR, Dose [Carcinogen]: 5 MG/ML IN TRICAPRYLIN ONCE AT 5 WK OF AGE, Promoter: NONE USED","100%, 94%, 6%, not significant"
same,"tumour outcome (control, treated, inhibition, significance)","Carcinogen: NITROSODIETHYLAMINE, 55-18-5, 1000 PPM IN DRINKING WATER BEGINNING 4 WK POST CARCINOGEN DOSE AND CONTINUING FOR DURATION OF STUDY (STUDY DURATION:, Route [Inhibitor]: ORAL, Species: MOUSE, Strain/Sex: B6C3F1/MALE, Target Tissue: Type of Lesion: LIVER: TUMOR, Dose [Carcinogen]: 5 MG/ML IN TRICAPRYLIN ONCE AT 5 WK OF AGE, Promoter: NONE USED","22/25 (88%), 1/25 (4%), 95%, p<0.05"
same,"tumour outcome (control, treated, inhibition, significance)","Carcinogen: NITROSODIETHYLAMINE, 55-18-5, 1000 PPM IN DRINKING WATER BEGINNING 4 WK POST CARCINOGEN DOSE AND CONTINUING FOR DURATION OF STUDY (STUDY DURATION:, Route [Inhibitor]: ORAL, Species: MOUSE, Strain/Sex: B6C3F1/MALE, Target Tissue: Type of Lesion: LUNG: TUMOR, Dose [Carcinogen]: 5 MG/ML IN TRICAPRYLIN ONCE AT 5 WK OF AGE, Promoter: NONE USED","100%, 94%, 6%, not significant"
same,"tumour outcome (control, treated, inhibition, significance)","Carcinogen: NITROSODIETHYLAMINE, 55-18-5, 1000 PPM IN DRINKING WATER BEGINNING 8 WK POST CARCINOGEN DOSE AND CONTINUING FOR DURATION OF STUDY (STUDY DURATION:, Route [Inhibitor]: ORAL, Species: MOUSE, Strain/Sex: B6C3F1/MALE, Target Tissue: Type of Lesion: LIVER: TUMOR, Dose [Carcinogen]: 5 MG/ML IN TRICAPRYLIN ONCE AT 5 WK OF AGE, Promoter: NONE USED","22/25 (88%), 1/25 (4%), 95%, p<0.05"
same,"tumour outcome (control, treated, inhibition, significance)","Carcinogen: NITROSODIETHYLAMINE, 55-18-5, 1000 PPM IN DRINKING WATER BEGINNING 8 WK POST CARCINOGEN DOSE AND CONTINUING FOR DURATION OF STUDY (STUDY DURATION:, Route [Inhibitor]: ORAL, Species: MOUSE, Strain/Sex: B6C3F1/MALE, Target Tissue: Type of Lesion: LUNG: TUMOR, Dose [Carcinogen]: 5 MG/ML IN TRICAPRYLIN ONCE AT 5 WK OF AGE, Promoter: NONE USED","100%, 89%, 11%, not significant"
same,"tumour outcome (control, treated, inhibition, significance)","Carcinogen: NITROSODIETHYLAMINE, 55-18-5, 1000 PPM IN DRINKING WATER BEGINNING 16 WK POST CARCINOGEN DOSE AND CONTINUING FOR DURATION OF STUDY (STUDY DURATION:, Route [Inhibitor]: ORAL, Species: MOUSE, Strain/Sex: B6C3F1/MALE, Target Tissue: Type of Lesion: LIVER: TUMOR, Dose [Carcinogen]: 5 MG/ML IN TRICAPRYLIN ONCE AT 5 WK OF AGE, Promoter: NONE USED","22/25 (88%), 2/25 (8%), 91%, p<0.05"
same,"tumour outcome (control, treated, inhibition, significance)","Carcinogen: NITROSODIETHYLAMINE, 55-18-5, 1000 PPM IN DRINKING WATER BEGINNING 16 WK POST CARCINOGEN DOSE AND CONTINUING FOR DURATION OF STUDY (STUDY DURATION:, Route [Inhibitor]: ORAL, Species: MOUSE, Strain/Sex: B6C3F1/MALE, Target Tissue: Type of Lesion: LUNG: TUMOR, Dose [Carcinogen]: 5 MG/ML IN TRICAPRYLIN ONCE AT 5 WK OF AGE, Promoter: NONE USED","100%, 72%, 28%, p<0.05"
same,"tumour outcome (control, treated, inhibition, significance)","Carcinogen: NITROSODIETHYLAMINE, 55-18-5, 1000 PPM IN DRINKING WATER BEGINNING 32 WK POST CARCINOGEN DOSE AND CONTINUING FOR DURATION OF STUDY (STUDY DURATION:, Route [Inhibitor]: ORAL, Species: MOUSE, Strain/Sex: B6C3F1/MALE, Target Tissue: Type of Lesion: LIVER: TUMOR, Dose [Carcinogen]: 5 MG/ML IN TRICAPRYLIN ONCE AT 5 WK OF AGE, Promoter: NONE USED","22/25 (88%), 6/24 (25%), 72%, p<0.05"
same,"tumour outcome (control, treated, inhibition, significance)","Carcinogen: NITROSODIETHYLAMINE, 55-18-5, 1000 PPM IN DRINKING WATER BEGINNING 32 WK POST CARCINOGEN DOSE AND CONTINUING FOR DURATION OF STUDY (STUDY DURATION:, Route [Inhibitor]: ORAL, Species: MOUSE, Strain/Sex: B6C3F1/MALE, Target Tissue: Type of Lesion: LUNG: TUMOR, Dose [Carcinogen]: 5 MG/ML IN TRICAPRYLIN ONCE AT 5 WK OF AGE, Promoter: NONE USED","100%, 96%, 4%, not significant"
CCOC(=O)c1ccc(/C=C(\C)c2ccc3c(c2)C(C)(C)CCC3(C)C)cc1,"tumour outcome (control, treated, inhibition, significance)","Carcinogen: 7,12-DIMETHYLBENZ[A]ANTHRACENE, 57-97-6, 24 UG/KG IN ARACHIS OIL (5 ML/KG) REDUCED TO 16 UG/KG AFTER 4 WK 5/WK BEGINNING 1 D POST CARCINOGEN DOSE (STUDY DURAT, Route [Inhibitor]: GAVAGE, Species: RAT, Strain/Sex: SPRAGUE-DAWLEY/FEMALE, Target Tissue: Type of Lesion: MAMMARY GLAND: TUMOR, Dose [Carcinogen]: 15 MG IN ARACHIS OIL ONCE AT 50 D OF AGE, Promoter: NONE USED","96%, 72%, 25%, not calculated"
N[C@@H](Cc1ccc(O)cn1)C(=O)O,"tumour outcome (control, treated, inhibition, significance)","Carcinogen: 7,12-DIMETHYLBENZ[A]ANTHRACENE, 57-97-6, 2 MG IN 50% ETHANOL 1/3 D BEGINNING 2 D POST CARCINOGEN TREATMENT (STUDY DURATION: 30 WK), Route [Inhibitor]: DERMAL, Species: MOUSE, Strain/Sex: TRANSGENIC/MALE, FEMALE, Target Tissue: Type of Lesion: SKIN: PAPILLOMA, Dose [Carcinogen]: 5 MG/KG/BW ONCE, Promoter: NONE USED","100%, 45%, 55%, not calculated"
same,"tumour outcome (control, treated, inhibition, significance)","Carcinogen: METHYLNITROSOUREA, 684-93-5, 2 MG/MOUSE 1/2 D FOR 12 WK BEGINNING 1 D POST CARCINOGEN TREATMENT (STUDY DURATION: 12 WK), Route [Inhibitor]: INTRAPERITONEAL, Species: MOUSE, Strain/Sex: TRANSGENIC/MALE, FEMALE, Target Tissue: Type of Lesion: FORESTOMACH: PAPILLOMA, Dose [Carcinogen]: 50 MG/KG IN 10 MILLIMOLAR CITRATE BUFFER, Promoter: NONE USED","100%, 0%, 100%, not calculated"
COC1=CC(=O)[C@]2(C=C1OC)OC[C@H]1Oc3c(ccc4c3C=CC(C)(C)O4)C(=O)[C@H]12,"tumour outcome (control, treated, inhibition, significance)","Carcinogen: 7,12-DIMETHYLBENZ[A]ANTHRACENE, 57-97-6, 85 NMOL 2/WK BEGINNING 1 WK POST CARCINOGEN DOSE (STUDY DURATION: 20 WK), Route [Inhibitor]: DERMAL, Species: MOUSE, Strain/Sex: ICR/FEMALE, Target Tissue: Type of Lesion: SKIN: PAPILLOMA, Dose [Carcinogen]: 390 NMOL, Promoter: 12-O-TETRADECANOYLPHORBOL-13-ACETATE, 16561-29-8","100%, 20%, 80%, not calculated"
CC1(C)CC[C@]2(C(=O)O)CC[C@]3(C)C(=CC[C@@H]4[C@@]5(C)CC[C@H](O)C(C)(C)[C@@H]5CC[C@]43C)[C@@H]2C1,"tumour outcome (control, treated, inhibition, significance)","Carcinogen: AZOXYMETHANE, 25843-45-2, 0.02% IN DIET IN WK 1-3 OF STUDY FOLLOWED BY BASAL DIET FOR DURATION OF STUDY (STUDY DURATION: 1 YR), Route [Inhibitor]: ORAL, Species: RAT, Strain/Sex: F344/MALE, Target Tissue: Type of Lesion: LARGE INTESTINE: ADENOCARCINOMA, Dose [Carcinogen]: 15 MG/KG BW 1/WK IN WK 1 AND 2 OF STUDY, Promoter: NONE USED","13/27 (48%), 6/29 (21%), 56%, not calculated"
same,"tumour outcome (control, treated, inhibition, significance)","Carcinogen: AZOXYMETHANE, 25843-45-2, 0.02% IN DIET IN WK 1-3 OF STUDY FOLLOWED BY BASAL DIET FOR DURATION OF STUDY (STUDY DURATION: 1 YR), Route [Inhibitor]: ORAL, Species: RAT, Strain/Sex: F344/MALE, Target Tissue: Type of Lesion: LARGE INTESTINE: ADENOMA, Dose [Carcinogen]: 15 MG/KG BW 1/WK IN WK 1 AND 2 OF STUDY, Promoter: NONE USED","6/27 (22%), 8/29 (28%), -27%, not significant"
same,"tumour outcome (control, treated, inhibition, significance)","Carcinogen: AZOXYMETHANE, 25843-45-2, 0.02% IN DIET IN WK 1-3 OF STUDY FOLLOWED BY BASAL DIET FOR DURATION OF STUDY (STUDY DURATION: 1 YR), Route [Inhibitor]: ORAL, Species: RAT, Strain/Sex: F344/MALE, Target Tissue: Type of Lesion: SMALL INTESTINE: ADENOCARCINOMA, Dose [Carcinogen]: 15 MG/KG BW 1/WK IN WK 1 AND 2 OF STUDY, Promoter: NONE USED","6/27 (22%), 3/29 (10%), 55%, not calculated"
S=C=Nc1c2ccccc2c2ccc3cccc4ccc1c2c43,outcome,"Carcinogen: BENZO[A]PYRENE, 50-32-8, 5 UMOL IN ACETONE 4 HR PRIOR TO CARCINOGEN DOSE (STUDY DURATION: 20 WK), Route [Inhibitor]: DERMAL, Species: MOUSE, Strain/Sex: STRAIN-A/FEMALE, Target Tissue: Type of Lesion: SKIN: TUMOR, Dose [Carcinogen]: 0.1 UMOL IN ACETONE ONCE, Promoter: 12-O-TETRADECANOYLPHORBOL-13-ACETATE, 16561-29-8","85%, 60%, 18%, not significant at 15 wk; 95%, 90%, 5%, not significant at 20 wk"
